Results as given in the supplement of paper PMC9663587.

Legend:
Experiment in all cases: area over the GR curve, 72 h; higher = more effect;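 note: Dye Drop or Deep Dye Drop imaging of viable cells in 384-well plates (Hoechst nuclei, LIVE/DEAD dye), nine half-log doses, GR normalized to DMSO controls and time-zero plates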
MCF10A = system: MCF10A
HCC1806 = system: HCC1806
SUM1315 = system: SUM1315
MCF12A = system: MCF12A
MDAMB330 = system: MDAMB330
BT20 = system: BT20
MDAMB415 = system: MDAMB415
SUM149 = system: SUM149
SKBR3 = system: SKBR3
SUM44PE = system: SUM44PE
CAL120 = system: CAL120
MDAMB453 = system: MDAMB453

| SMILES | area over the GR curve (MCF10A) [GR] | area over the GR curve (HCC1806) [GR] | area over the GR curve (SUM1315) [GR] | area over the GR curve (MCF12A) [GR] | area over the GR curve (MDAMB330) [GR] | area over the GR curve (BT20) [GR] | area over the GR curve (MDAMB415) [GR] | area over the GR curve (SUM149) [GR] | area over the GR curve (SKBR3) [GR] | area over the GR curve (SUM44PE) [GR] | area over the GR curve (CAL120) [GR] | area over the GR curve (MDAMB453) [GR] | area over the GR curve (MCF10A; main component drawn) [GR] | area over the GR curve (HCC1806; main component drawn) [GR] | area over the GR curve (SUM1315; main component drawn) [GR] | area over the GR curve (BT20; main component drawn) [GR] | area over the GR curve (SUM149; main component drawn) [GR] | area over the GR curve (SKBR3; main component drawn) [GR] | area over the GR curve (CAL120; main component drawn) [GR] | area over the GR curve (MDAMB453; main component drawn) [GR] |
| --- | --- | --- | --- | --- | --- | --- | --- | --- | --- | --- | --- | --- | --- | --- | --- | --- | --- | --- | --- | --- |
| COc1ccc2c(c1)[C@]1(C[C@H]1c1ccc3c(/C=C/c4ccc(CN5C[C@@H](C)O[C@@H](C)C5)cc4)n[nH]c3c1)C(=O)N2 | 0.817 | 0.94 | 0.83 | 0.499 | 0.438 | 1.07 | 0.36 | 0.672 | 0.711 | 0.898 | 0.518 | 0.537 | – | – | – | – | – | – | – | – |
| COc1cccc(OCCCN)c1-c1cc(Nc2cnc(C#N)cn2)n[nH]1 | 0.301 | 1.39 | 0.809 | 0.589 | 0.718 | 0.973 | 0.0862 | 0.793 | 0.802 | 0.75 | 0.344 | 0.843 | – | – | – | – | – | – | – | – |
| CC(=O)Nc1cccc(-n2c(=O)n(C3CC3)c(=O)c3c(Nc4ccc(I)cc4F)n(C)c(=O)c(C)c32)c1 (max 1 µM) | 0.527 | 0.104 | 0.389 | 0.531 | 0.218 | 0.176 | 0.174 | 0.39 | 0.182 | 0.186 | 0.294 | 0.279 | – | – | – | – | – | – | – | – |
| CCc1cnn2c(NCc3ccc[n+]([O-])c3)cc(N3CCCC[C@H]3CCO)nc12 (max 1 µM) | 0.528 | 0.643 | 0.766 | 0.424 | 0.101 | 0.672 | 0.55 | 0.687 | 0.835 | 0.334 | 0.555 | 0.578 | – | – | – | – | – | – | – | – |
| CC(=O)c1c(C)c2cnc(Nc3ccc(N4CCNCC4)cn3)nc2n(C2CCCC2)c1=O (max 3.162 µM) | 0.188 | 0.146 | 0.33 | 0.0837 | 0.47 | 0.39 | 0.454 | 0.19 | 0.285 | 0.216 | 0.142 | 0.437 | – | – | – | – | – | – | – | – |
| CCCCOc1c(C(=O)c2c(F)cc(C)cc2F)c[nH]c2nncc1-2 (max 10 µM) | 0.39 | 0.455 | 0.872 | 0.272 | 0.372 | 0.84 | 0.349 | 0.637 | 0.541 | 1.12 | 0.346 | 0.384 | – | – | – | – | – | – | – | – |
| CCN1CCN(Cc2ccc(Nc3ncc(F)c(-c4cc(F)c5nc(C)n(C(C)C)c5c4)n3)nc2)CC1 (max 10 µM) | 0.381 | 0.392 | 0.582 | 0.169 | 0.722 | 0.569 | 0.71 | 0.344 | 0.536 | 0.651 | 0.478 | 0.85 | – | – | – | – | – | – | – | – |
| CNc1nc(-c2ccc3c(N)n[nH]c3c2)cc(N2C[C@@H](C(=O)NC3CCCCC3)CC[C@H]2C)n1 (max 10 µM) | -0.0162 | 0.0151 | 0.291 | 0.0618 | 0.498 | 0.0701 | 0.295 | 0.0419 | 0.318 | 0.165 | 0.0896 | 0.266 | – | – | – | – | – | – | – | – |
| CO[C@@H](C)Cn1c(=O)n(C)c2cnc3ccc(-c4cncc(C(C)(C)O)c4)cc3c21 (max 10 µM) | 0.447 | 0.43 | 0.693 | 0.476 | 1.31 | 0.768 | 0.922 | 0.286 | 0.824 | 1.02 | 0.696 | 0.851 | – | – | – | – | – | – | – | – |
| Cc1nn(C)c(COc2ccc(N3CCN(S(=O)(=O)N(C)C)CC3)cc2)c1-c1cccc2c(CCCOc3cccc4ccccc34)c(C(=O)O)n(CCN3CCOCC3)c12 (max 10 µM) | 0.0018 | -0.0123 | -0.0531 | -0.0165 | 0.0479 | -0.0396 | 0.0101 | 0.0361 | 0.0389 | 0.14 | 0.0152 | -0.0756 | – | – | – | – | – | – | – | – |
| Cc1c(N)nc([C@H](CC(N)=O)NC[C@H](N)C(N)=O)nc1C(=O)N[C@H](C(=O)N[C@H](C)[C@@H](O)[C@H](C)C(=O)N[C@H](C(=O)NCCc1nc(-c2nc(C(=O)NCCC[S+](C)C)cs2)cs1)[C@@H](C)O)[C@@H](OC1OC(CO)C(O)C(O)C1OC1OC(CO)C(O)C(OC(N)=O)C1O)c1cnc[nH]1 (some centres not stated) [Bleomycin] (max 10 µM) | – | – | – | – | – | – | – | – | – | – | – | – | 0.449 | 0.117 | 0.41 | 0.376 | 0.683 | 0.259 | 0.232 | 0.198 |
| N.N.[Cl][Pt][Cl] [Cisplatin] (max 10 µM) | 0.0952 | 0.317 | 0.296 | – | – | 0.334 | – | 0.355 | 0.0978 | – | 0.182 | 0.0713 | – | – | – | – | – | – | – | – |
| COc1cc([C@@H]2c3cc4c(cc3[C@@H](O[C@@H]3O[C@@H]5CO[C@@H](C)O[C@H]5[C@H](O)[C@H]3O)[C@H]3COC(=O)[C@H]23)OCO4)cc(OC)c1O [Etoposide] (max 10 µM) | 0.415 | 0.648 | 0.381 | – | – | 0.459 | – | 0.527 | 0.403 | – | 0.381 | 0.362 | – | – | – | – | – | – | – | – |
| CC[C@@]1(O)C(=O)OCc2c1cc1n(c2=O)Cc2cc3c(CN(C)C)c(O)ccc3nc2-1 [Topotecan] (max 10 µM) | 0.765 | 1.07 | 0.769 | – | – | 1.03 | – | 0.941 | 0.794 | – | 0.913 | 0.926 | – | – | – | – | – | – | – | – |
